Assay results from patent publication US8163727B2, “Biphenyloxyacetic acid derivatives for the treatment of respiratory disease” (AstraZeneca AB, priority 2004, dated 2012).

Experiments:
[1] = biological target: T1, CRTh2 (Homo sapiens, UniProt Q9Y5Y4); test: Ligand binding assay ([3H]PGD2 SPA on membranes of HEK cells expressing rhCRTh2/Gα16); settings: [3H]PGD2 displacement, HEK cell membranes containing CRTh2; read-out: pIC50 value (converted)
T1 construct: expressed in transfected cells; host or cells: HEK cells (membrane preparation)
T1 sequence (Q9Y5Y4 1-395): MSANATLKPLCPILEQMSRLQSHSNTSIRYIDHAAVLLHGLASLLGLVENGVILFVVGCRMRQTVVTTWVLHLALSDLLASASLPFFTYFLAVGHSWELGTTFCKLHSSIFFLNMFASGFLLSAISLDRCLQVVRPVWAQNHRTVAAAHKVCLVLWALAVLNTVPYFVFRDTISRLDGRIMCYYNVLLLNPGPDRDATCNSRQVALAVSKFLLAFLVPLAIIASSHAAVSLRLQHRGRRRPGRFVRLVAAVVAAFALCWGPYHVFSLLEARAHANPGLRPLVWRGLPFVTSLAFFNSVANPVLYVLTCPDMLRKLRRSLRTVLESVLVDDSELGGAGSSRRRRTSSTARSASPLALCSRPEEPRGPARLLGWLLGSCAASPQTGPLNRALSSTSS
Method: [^3H]PGD2 was purchased from Perkin Elmer Life Sciences with a specific activity of 100-210 Ci/mmol. All other chemicals were of analytical grade.
HEK cells expressing rhCRTh2/Gα16 were routinely maintained in DMEM containing 10% Foetal Bovine Serum (HyClone), 1 mg/ml geneticin, 2 mM L-glutamine and 1% non-essential amino acids. For the preparation of membranes, the adherent transfected HEKcells were grown to confluence in two layer tissue culture factories (Fisher, catalogue number TKT-170-070E). Maximal levels of receptor expression were induced by addition of […] sodium butyrate for the last 18 hours of culture. The adherent cells were washed once with phosphate buffered saline (PBS, 50 ml per cell factory) and detached by the addition of 50 ml per cell factory of ice-cold membrane homogenisation buffer [20 mM HEPES (pH 7.4), 0.1 mM dithiothreitol, 1 mM EDTA, 0.1 mM phenyl methyl sulphonyl fluoride and 100 μg/ml bacitracin]. Cells were pelleted by centrifugation at 220×g for 10 minutes at 4° C., re-suspended in half the original volume of fresh membrane homogenisation buffer and disrupted using a Polytron homogeniser for 2×20 second bursts keeping the tube in ice at all times. […] The final pellet was re-suspended in 4 ml of membrane homogenisation buffer per cell factory used and the protein content determined. […]
All assays were performed in Corning clear bottomed, white 96-well NBS plates (Fisher). […] (The optimum coating concentrations were determined for each batch of membranes) The beads were pelleted by centrifugation (800×g for 7 minutes at 4° C.), washed once with assay buffer (50 mM HEPES pH 7.4 containing 5 mM magnesium chloride) and finally re-suspended in assay buffer at a bead concentration of 10 mg/ml. […]
Compounds and DK-PGD2 were dissolved in DMSO and diluted in the same solvent to 100× the required final concentration. […] The assay plate was incubated at room temperature for 2 hours and counted on a Wallac Microbeta liquid scintillation counter (1 minute per well).

| IC50 [1] [nM] | melting point [°C] | SMILES |
| --- | --- | --- |
| 1.78 | – | C[C@H](Oc1ccc(Cl)cc1-c1cc(F)c(S(=O)(=O)N2CCOCC2)cc1F)C(=O)O [Example 5] |
| – | 170 to 171 | CC(C)S(=O)(=O)c1ccc(-c2cc(C(F)(F)F)ccc2OCC(=O)O)cc1F [Example 6, [[3′-Fluoro-4′-[(1-methylethyl)sulfonyl]-5-(trifluoromethyl)[1,1′-biphenyl]-2-yl]oxy]acetic acid] |
| – | 174 to 175 | CCS(=O)(=O)c1ccc(-c2cc(C(F)(F)F)ccc2OCC(=O)O)cc1C(F)(F)F [Example 9, [[4′-(Ethylsulfonyl)-3′,5-bis(trifluoromethyl)[1,1′-biphenyl]-2-yl]oxy]acetic acid] |
| – | 124 to 126 | CCS(=O)(=O)c1ccc(-c2cc(C(F)(F)F)ccc2O[C@@H](C)C(=O)O)cc1C(F)(F)F [Example 10, (2S)-2-[[4′-(Ethylsulfonyl)-3′,5-bis(trifluoromethyl)[1,1′-biphenyl]-2-yl]oxy]propanoic acid] |
| 35.5 | 208 to 209 | O=C(O)COc1ccc(Cl)cc1-c1ccc(S(=O)(=O)N2CCOCC2)c(C(F)(F)F)c1 [Example 11] |
| – | 148 to 149 | C[C@H](Oc1ccc(Cl)cc1-c1ccc(S(=O)(=O)N2CCOCC2)c(C(F)(F)F)c1)C(=O)O [Example 12, (2S)-2-[[5-Chloro-4′-(4-morpholinylsulfonyl)-3′-(trifluoromethyl)[1,1′-biphenyl]-2-yl]oxy]propanoic acid] |
| 7.08 | 197 to 198 | O=C(O)COc1ccc(Cl)cc1-c1ccc(C(=O)N2CCCC2)c(C(F)(F)F)c1 [Example 13, [[5-Chloro-4′(1-pyrrolidinylcarbonyl)-3′-(trifluoromethyl)[1,1′-biphenyl]-2-yl]oxy]-acetic acid] |
| – | 164 to 165 | C[C@H](Oc1ccc(Cl)cc1-c1ccc(C(=O)N2CCCC2)c(C(F)(F)F)c1)C(=O)O [Example 14, (2S)-2-[[5-Chloro-4′-(1-pyrrolidinylcarbonyl)-3′-(trifluoromethyl)[1,1′-biphenyl]-2-yl]oxy]propanoic acid] |
| – | 77 to 79 | C[C@H](Oc1ccc(Cl)cc1-c1ccc(S(C)(=O)=O)c(C(F)(F)F)c1)C(=O)O [Example 16, (2S)-2-[[5-Chloro-4′-(methylsulfonyl)-(3′-trifluoromethyl)-[1,1′-biphenyl]-2-yl]oxy]propanoic acid] |
